Measured values reported in patent US4075189A, “Hexapeptides” (Parke, Davis & Company, priority 1976, dated 1978).
Where “and” joins values, the source holds several entries; their conditions need not be identical. Equal values may be shown once. No end group written: not given here.

Tested on: LRF (luteinizing hormone releasing factor) induced luteinizing hormone (LH) release
Experiment: LRF antagonist activity in vitro, rat anterior pituitary cell cultures (Vale et al.)
Format: cell-based
Conditions: LRF alone
Text: Hexapeptides of this invention were screened for LRF antagonist activity in vitro using rat anterior pituitary cell cultures as described by Vale et. al. [Endocrinology, 91, 562 (1972)]. The inhibition of LRF (luteinizing hormone releasing factor) induced luteinizing hormone (LH) release into the culture medium is the endpoint in this in vitro bioassay.

For “LRF Control: luteinizing hormone releasing factor, also referred to as luteinizing hormone releasing hormone, LH-RH; stimulus in the bioassay (QHWSYGLRPG; ends and bridges not checked; UniProt P01148 24-33, looked up)”, the “LH Value” (Molar Conc. 2.5×10^-10) was 38.98 ng/mL, the “LH Value” (Molar Conc. 3.5×10^-10) was 35.60 ng/mL and 49.99 ng/mL and 41.70 ng/mL and 64.13 ng/mL and the “LH Value” (Molar Conc. 5×10^-10) was 63.61 ng/mL.
